Consider one compound from US20240400572A1, “COMPOUNDS AND METHODS FOR TREATING CANCERS THAT ARE MGMT DEFICIENT REGARDLESS OF MMR STATUS” (Yale University, priority 2021, published 2024).

The subject of this experiment is LN229 MGMT−/MMR+ and MGMT−/MMR− cells. The experiment can be described thus: IR alkaline comet assay. Type of experiment: cell-based, human. The method, then:
IR Alkaline Comet Assay. Assay was performed utilizing the CometAssay Kit (Trevigen) according to the alkaline assay protocol, with the addition of slide irradiation post-lysis. Cells were trypsinized, washed with 1×PBS, added to melted Comet LMAgarose (Trevigen), and spread on Trevigen CometSlides at a density of 1000 cells per sample in 50 μL. Lysis solution (Trevigen) with 10% DMSO was added overnight at 4° C. Slides were removed from lysis buffer and irradiated to 0 or 10 Gy using an XRAD 320 X-Ray System (Precision X-Ray) at 320 kV, 12.5 mA, and 50.0 cm SSD, with a 2 mm Al filter and 20 cm×20 cm collimator. Slides were then placed in alkaline buffer (200 mM NaOH, 1 mM EDTA) for 45 min, followed by electrophoresis in 850 mL alkaline buffer for 45 min at 4° C. Slides were washed and stained with SYBR gold (Invitrogen) per Trevigen assay protocol. Slides were imaged on a Cytation 3 imaging reader (BioTek), and comets were analyzed using CometScore 2.0 software (TriTek).
We used a well-established comet assay adapted for ICL detection to determine if ICLs were formed in MGMT− cells treated with KL-50 (4a) (FIG. Z3, A and B). In this assay, cells were sequentially exposed to genotoxins and ionizing radiation, and then analyzed by single cell alkaline gel electrophoresis. Attenuation of the IR-induced comet tail is indicative of ICL formation.

For `Cn1nnc2c(C(N)=O)ncn2c1=O` [TMZ, temozolomide, reference compound], the “effect on IR-induced comet tail, ICL detection (in words)” value (MGMT−/MMR+ cells, 200 μM for 24 h, 10 Gy) is “did not reduce DNA migration following IR”. For the same compound, the “comet tailing in the absence of IR (in words)” value (MGMT−/MMR+ cells, TMZ and KL-50 200 μM, MMC 0.1 or 50 μM) is on record as “induced tailing”. In addition, the “DNA damage in unirradiated samples (in words)” value (MGMT−/MMR− cells, 200 μM, 2, 8 or 24 h, 0 Gy) is recorded as “induced maximal damage at 2 h, which decreased over time”. Besides, under “MGMT−/MMR− cells, 200 μM, 2, 8 or 24 h, 10 Gy”, the “rate of ICL formation, DNA mobility after IR (in words)” value is “did not induce a statistically significant decrease in DNA migration within 24 h”.
